Laboratory results taken from EP3884941A1, “INFLAMMASOME INHIBITORS AND USE THEREOF” (CENTRO DE INVESTIGACION PRINCIPE FELIPE, priority 2020, dated 2021).
Read-outs that look alike come from different tables or passages of the source.

Legend:
[1] = biological target: T1, ASC-mediated PC1 activation (Homo sapiens, UniProt P29466); assay: ASC-mediated PC1 reconstitution in vitro assay (primary screening); assay type: biochemical
T1 construct: His; made in house; host or cells: PC1: Sf9 insect cells (baculovirus)
T1 sequence (P29466 1-404): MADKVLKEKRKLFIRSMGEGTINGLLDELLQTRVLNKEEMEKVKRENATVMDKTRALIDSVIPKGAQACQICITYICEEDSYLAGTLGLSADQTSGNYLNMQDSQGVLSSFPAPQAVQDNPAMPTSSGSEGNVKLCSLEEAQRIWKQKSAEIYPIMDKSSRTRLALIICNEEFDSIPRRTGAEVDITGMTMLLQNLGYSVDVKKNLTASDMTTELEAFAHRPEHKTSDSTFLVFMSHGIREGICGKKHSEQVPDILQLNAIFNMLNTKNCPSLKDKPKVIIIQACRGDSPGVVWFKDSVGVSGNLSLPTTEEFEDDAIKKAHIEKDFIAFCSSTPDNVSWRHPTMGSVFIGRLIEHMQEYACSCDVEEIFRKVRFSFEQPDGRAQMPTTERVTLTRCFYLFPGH
Method: Recombinant PC1 (50 nM) was preincubated with the indicated concentrations of compounds for 20 min at RT in Assay Buffer (20 mM HEPES pH 7.5, 10 mM KCI, 1.5 mM MgCl2, 1mM EDTA, 1 mM EGTA, 1 mM DTT). Then 300 nM of ASC were added and incubated for another 10 min period. Caspase-1 activation was measured using fluorogenic substrate Ac-WEHD-AFC (80 µM; Enzo Life Sciences) by continuously monitoring the release of the AFC (7-Amino-4-trifluoromethylcoumarin) product in a Wallac Victor workstation. The compounds were initially tested at 20 µM with 1% of DMSO. Data are reported as the percentage of inhibition compared with the absence of the compound.
The materials and methods employed in these experiments are now described.

[2] = test system: NLRP3 inflammasome; assay: inflammasome activation cellular assay, LPS plus nigericin, PMA-differentiated THP-1 cells; assay type: cell-based, human; details: MM01 10 µM
Method: The MM01 compound was evaluated in the THP-1, or PMA-differentiated THP-1 cells (50 nM PMA for 24h) stimulated with lipopolysaccharide (LPS) plus adenosine triphosphate (ATP) to stimulate ASC-dependent inflammasomes NLRP3. Briefly, 1x10^6 cells were seeded in 6-well plates in 1 mL RPMI media that contained 1% FBS. Cells were either mock-treated or primed with compounds at the indicated concentrations for 30 min, followed by treatment with 100 ng/mL LPS (Sigma) and 2.5 mM ATP (Sigma) for 6 h at 37°C. In the case of nigericin stimulation, cells were primed with LPS for 3h, and then 10 µM nigericin (Sigma) was added for 30 min. Supernatants were harvested and clarified by centrifugation at 1500 rpm at RT, and a cytokine analysis was performed. Both IL-1β secretion and the release of IL-18were monitored by an ELISA assay (BD OptEIA™ Human IL-1β ELISA Kit and Human IL-18 Module Set eBioscience) following the manufacturer's instructions. Cell viability was analyzed in parallel by evaluating the release of lactate dehydrogenase (LDH) according to a commercial kit (CytoTox-ONE™ Homogeneous Membrane Integrity Assay; Promega). The release of LDH was calculated using the formula: the release of LDH (%) = 100x (Abs490 treated -Abs490 untreated cells)/ Abs490 untreated cells lysed with Triton 9% (maximum release of LDH).
The supernatants of the treated cells were precipitated by the chloroform-methanol method. Pellets were obtained by lysing cells in 25 mM of Tris-HCI pH 7.4, 1 mM EDTA, 1 mM EGTA and 1% SDS, plus protease and phosphatase inhibitors. The protein concentration was determined by the BCA protein assay. Samples were separated in a 14% SDS-PAGE gel, transferred to a nitrocellulose membrane and blocked with 5% skimmed milk for 1 h. Then the membrane was incubated overnight with primary antibodies: α-casp1 (1:1000; Cell Signaling 2225), α-IL-1β (1:1000; Acris R1130P), α-NLRP3 (1:1000; Cell Signaling 15101), α-tubulin (1:3000; Abcam ab6160) at 4°C. […]

[3] = test system: ASC specks in THP1-ASC-GFP cells; assay: ASC speck assay; assay type: cell-based, human; details: THP-1 ASC GFP, LPS 100 ng/mL + nigericin 10 µM; MM01 10 µM, VX-765 5 µM
Method: THP1-ASC-GFP cells were seeded at 1×10^6/ml the day prior to use in experiments on 35 mm glass-bottom culture dishes. The following day medium was replaced containing the indicated inhibitors or vehicle for 30 min. Cells were then primed with 100 ng/ml LPS for 3h and stimulated with 10 µM nigericin for 30 min. Samples were fixed in 4% paraformaldehyde (PFA) for 10 min at RT and washed several times. Coverslips were prepared in mounting medium plus DAPI and analyzed in a Leica SP8 confocal microscope.

[4] = test system: ASC oligomerization; assay: ASC oligomerization assay (DSS crosslinking, immunoblotting); assay type: cell-based, human; details: crosslinked pellets, LPS plus nigericin; MM01 10 µM, VX-765 5 µM
Method: PMA-differentiated THP-1 cells were seeded at 1x10^6 cells/ml in 6-well plates. Cells were treated with compounds for 30 min, primed with 100 ng/ml LPS for 3h and then stimulated with 10 µM nigericin for 30 min. The supernatants were removed, cells were rinsed in ice-cold PBS and lysed in NP-40 buffer (20 mM HEPES-KOH pH 7.5, 150 mM KCL, 1% NP-40 plus protease inhibitors). Lysates were centrifuged at 330 × g for 10 min at 4 °C. The pellets were washed and resuspended in PBS plus 2 mM disuccinimidyl suberate (DSS) and incubated at RT for 30 min with rotation. Samples were then centrifuged at 330 × g for 10 min at 4 °C. The supernatant was removed, and the cross-linked pellets were resuspended in sample buffer, boiled and analyzed by immunoblotting.

[5] = PMA-differentiated THP-1, LPS 100 ng/ml + nigericin 10 µM

C=CCN1C(=O)/C(=C2/C(=O)Nc3ccccc32)SC1=S [MM01]
IC50 ([1]; PC1 50 nM, ASC 300 nM, substrate Ac-WEHD-AFC, read-out: IC50): 500 ± 100 nM | IC50 ([1]; dose-response curve 0.04 to 40 µM (Figure 1B), stated in words): in the nanomolar range | formation of p20 subunit ([1]; immunoblotting of PC1 processing (Figure 1C)): decrease | IL-1β secretion [2, 5]: decreased | IL-18 secretion [2, 5]: decreased | pyroptotic cell death ([2]; PMA-differentiated THP-1, LPS + nigericin, LDH release): decreased | ASC speck formation [3]: inhibited | ASC oligomerization [4]: inhibited
